In publication PMC9853918 (Journal of chemical information and modeling, 2022):

Experiments:
H11G11-BG βGUS = assay: βGUS; format: biochemical, uncultured bacterium; settings: for efficacy: 0.5 nM GUS, 100 μM 4MUG, 1 hr at room temperature, negative = inhibition; for curve class (CC): dose-response curve class
(UniProt D5GU71) = assay: βGUS; format: biochemical, uncultured bacterium
Sequence of (UniProt D5GU71) (D5GU71 1-754): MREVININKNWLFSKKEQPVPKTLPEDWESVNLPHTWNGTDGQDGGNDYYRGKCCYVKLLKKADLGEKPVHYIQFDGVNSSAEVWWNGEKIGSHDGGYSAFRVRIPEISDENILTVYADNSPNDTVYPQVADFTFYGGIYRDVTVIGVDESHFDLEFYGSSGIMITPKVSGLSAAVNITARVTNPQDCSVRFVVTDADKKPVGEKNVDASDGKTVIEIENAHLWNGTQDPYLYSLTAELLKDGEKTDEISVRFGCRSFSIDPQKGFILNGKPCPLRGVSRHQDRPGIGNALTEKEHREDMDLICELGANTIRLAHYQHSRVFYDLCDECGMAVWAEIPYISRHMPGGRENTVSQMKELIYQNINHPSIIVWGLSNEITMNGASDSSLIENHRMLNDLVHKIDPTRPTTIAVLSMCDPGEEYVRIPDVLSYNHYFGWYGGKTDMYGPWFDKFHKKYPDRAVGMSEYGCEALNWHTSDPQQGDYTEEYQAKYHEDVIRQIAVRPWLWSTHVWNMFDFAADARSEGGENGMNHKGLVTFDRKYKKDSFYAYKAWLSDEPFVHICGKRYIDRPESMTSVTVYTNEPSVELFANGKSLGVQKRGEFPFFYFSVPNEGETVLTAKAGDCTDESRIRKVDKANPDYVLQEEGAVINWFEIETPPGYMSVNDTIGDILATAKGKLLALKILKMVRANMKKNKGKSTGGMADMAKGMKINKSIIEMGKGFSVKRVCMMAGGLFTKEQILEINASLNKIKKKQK

Structure (SMILES)	efficacy (H11G11-BG βGUS)	curve class (CC) (H11G11-BG βGUS)	IC50 ((UniProt D5GU71))
O=C(Nc1cccc(-c2nc3ncccc3o2)c1)c1ccc(-c2cccc(Cl)c2Cl)o1 [NCGC00099510, 5-(2,3-dichlorophenyl)-N-(3-(oxazolo[4,5-b]pyridine-2-yl)phenyl)furan-2-carboxamide]	−70%	−1.2	9.6 µM
c1ccc(Nc2cc3c(cn2)CN(CC2CC2)CCN3)cc1 [NCGC00411059, 4-(cyclopropylmethyl)-N-phenyl-2,3,4,5-tetrahydro-1H-pyrido[4,3-e][1,4]diazepin-8-amine]	−72%	−2.2	
